This note sets out measurements from ChEMBL document CHEMBL1212736, “Prevalence and clonal characterization of Streptococcus pyogenes clinical isolates with reduced fluoroquinolone susceptibility in Spain” (2010).

Test [1] concerns Streptococcus pyogenes. The experiment in a line: Antimicrobial activity against macrolide-resistant Streptococcus pyogenes emm77/ST399/T28 expressing tetM gene by agar dilution method. The class given is functional.
The subject of test [2] is Streptococcus pyogenes. The experiment in a line: Antimicrobial activity against strong ciprofloxacin-resistant Streptococcus pyogenes by agar dilution method. Type of test: functional.
The test system of test [3] is Streptococcus pyogenes. As to the kind of experiment: Antimicrobial activity against mild ciprofloxacin-resistant Streptococcus pyogenes by agar dilution method. Type of test: functional. On the technique in general: In agar dilution, organisms are placed on agar that contains the substance at set levels.
Test [4] relates to Streptococcus pyogenes. As to the kind of experiment: Antimicrobial activity against ciprofloxacin-susceptible Streptococcus pyogenes harboring Asp91/Asn mutation in parC gene by agar dilution method. Type of test: functional.
For test [5], the system named is Streptococcus pyogenes. The experiment in a line: Antimicrobial activity against strong ciprofloxacin-resistant Streptococcus pyogenes at 10 ug by disk diffusion assay. Type of test: functional. Conditions: read-out: IZ. (Agar diffusion results depend on both activity and mobility in agar.)
Test [6] relates to Streptococcus pyogenes. As to the kind of experiment: Antimicrobial activity against mild ciprofloxacin-resistant Streptococcus pyogenes assessed as 1 fold decrease in compound MIC by agar dilution method. The class given is functional, organism-based.
Test [7] has as its system Streptococcus pyogenes. The experiment in a line: Antimicrobial activity against strong ciprofloxacin-resistant Streptococcus pyogenes assessed as 1 fold decrease in compound MIC by agar dilution method. The class given is functional, organism-based.
For test [8], the system named is Streptococcus pyogenes. The experiment in a line: Antimicrobial activity against ciprofloxacin-susceptible Streptococcus pyogenes harboring Asp91/Asn mutation in parC gene assessed as 1 fold decrease in compound MIC by agar dilution method. Type of test: functional, organism-based.

Converted amounts (≈) assume the structure as drawn. The source made the active and inactive calls. The rule behind the calls is not given here.

By MIC is commonly meant the least concentration at which growth counts as inhibited. In turn, `CN(C)[C@@H]1C(O)=C(C(N)=O)C(=O)[C@@]2(O)C(O)=C3C(=O)c4c(O)cccc4[C@@](C)(O)[C@H]3C[C@@H]12` [TETRACYCLINE] showed a minimum inhibitory concentration (MIC) in the test with Streptococcus pyogenes [1] of 8 µg/mL (≈ 18 µM).
By MIC50 is commonly meant an inhibitory concentration at the 50% level, which refers to growth in some studies and to a panel of isolates in others. As a reminder, the MIC90 is an inhibitory concentration at the 90% level, which refers to growth in some studies and to a panel of isolates in others. `COc1c(N2C[C@@H]3CCCN[C@@H]3C2)c(F)cc2c(=O)c(C(=O)O)cn(C3CC3)c12` [MOXIFLOXACIN]: the MIC in the test with Streptococcus pyogenes [2] amounted to 4 µg/mL (≈ 9.96 µM). Further, in the test with Streptococcus pyogenes [3], the MIC50 was found to be 0.5 µg/mL (≈ 1.25 µM) and the MIC90 came to 0.5 µg/mL (≈ 1.25 µM). In the test with Streptococcus pyogenes [4], this molecule displayed an MIC50 of at most 0.25 µg/mL and an MIC90 of at most 0.25 µg/mL. Further, the zone of inhibition at 10 µg/disc in the test with Streptococcus pyogenes [5] stood at 0 mm.
Turning to `CC1COc2c(N3CCN(C)CC3)c(F)cc3c(=O)c(C(=O)O)cn1c23` (configuration not stated) [OFLOXACIN], the minimum inhibitory concentration (MIC) against Streptococcus pyogenes [2] turned out to be 64 µg/mL (≈ 177 µM). In addition, in the test with Streptococcus pyogenes [3], the MIC50 turned out to be 4 µg/mL (≈ 11.1 µM) and the MIC90 was 8 µg/mL (≈ 22.1 µM). In the test on Streptococcus pyogenes [4], this molecule showed an MIC50 of 1 µg/mL (≈ 2.77 µM) and an MIC90 of 2 µg/mL (≈ 5.53 µM). The zone of inhibition at 10 µg/disc with Streptococcus pyogenes [5] was 0 mm.
Turning to `Cc1c(F)c(N2CCNC(C)C2)cc2c1c(=O)c(C(=O)O)cn2C1CC1` (configuration not stated) [GREPAFLOXACIN], in the test on Streptococcus pyogenes [2], the MIC was found to be 16 µg/mL (≈ 44.5 µM). In the test on Streptococcus pyogenes [3], this molecule returned an MIC50 of 2 µg/mL (≈ 5.56 µM) and an MIC90 of 2 µg/mL (≈ 5.56 µM). In the test with Streptococcus pyogenes [4], this molecule had an MIC50 of at most 0.5 µg/mL and an MIC90 of 1 µg/mL (≈ 2.78 µM). The zone of inhibition at 10 µg/disc in the test on Streptococcus pyogenes [5] came to 0 mm.
On to `CO/N=C1\CN(c2nc3c(cc2F)c(=O)c(C(=O)O)cn3C2CC2)CC1CN` (configuration not stated) [GEMIFLOXACIN], for which 1 µg/mL (≈ 2.57 µM) was the least that counted as inhibitory with Streptococcus pyogenes [2] (MIC). Further, in the test with Streptococcus pyogenes [3], the MIC50 is at most 0.25 µg/mL and the MIC90 was at most 0.25 µg/mL. In the test with Streptococcus pyogenes [4], this molecule had an MIC50 of at most 0.25 µg/mL and an MIC90 of at most 0.25 µg/mL. For the same molecule, the zone of inhibition at 10 µg/disc in the test with Streptococcus pyogenes [5] was found to be 0 mm.
In turn, `O=C(O)c1cn(C2CC2)c2cc(N3CCNCC3)c(F)cc2c1=O` [CIPROFLOXACIN] came in with an MIC against Streptococcus pyogenes [2] of 32 µg/mL (≈ 96.6 µM). In addition, the MIC50 against Streptococcus pyogenes [4] was under 0.5 µg/mL. This molecule had an MIC90 against Streptococcus pyogenes [4] of 1 µg/mL (≈ 3.02 µM). Further, the result in the test on Streptococcus pyogenes [6], with Streptococcus pyogenes [7] and in the test on Streptococcus pyogenes [8] was Active. Also, the zone of inhibition at 10 µg/disc in the test with Streptococcus pyogenes [5] is 0 mm.
Turning to `C[C@H]1COc2c(N3CCN(C)CC3)c(F)cc3c(=O)c(C(=O)O)cn1c23.C[C@H]1COc2c(N3CCN(C)CC3)c(F)cc3c(=O)c(C(=O)O)cn1c23.O` [LEVOFLOXACIN], the MIC against Streptococcus pyogenes [2] came out at 32 µg/mL. In the test with Streptococcus pyogenes [3], this molecule registered an MIC50 of 2 µg/mL and an MIC90 of 2 µg/mL. In the test with Streptococcus pyogenes [4], this molecule showed an MIC50 of at most 0.5 µg/mL and an MIC90 of 1 µg/mL. Further, the zone of inhibition at 10 µg/disc in the test on Streptococcus pyogenes [5] came to 0 mm.
`CCn1cc(C(=O)O)c(=O)c2cc(F)c(N3CCNCC3)cc21` [NORFLOXACIN] came in with an MIC with Streptococcus pyogenes [2] of 64 µg/mL (≈ 200 µM). The values for the MIC50 against Streptococcus pyogenes [3] and in the test on Streptococcus pyogenes [4] were 32 µg/mL (≈ 100 µM) and 4 µg/mL (≈ 12.5 µM), respectively. Also, the MIC90 against Streptococcus pyogenes [3] is over 32 µg/mL; against Streptococcus pyogenes [4], 8 µg/mL (≈ 25.1 µM). Also, the outcome in the test on Streptococcus pyogenes [6], in the test with Streptococcus pyogenes [7] and in the test on Streptococcus pyogenes [8] was Active. The zone of inhibition at 10 µg/disc in the test on Streptococcus pyogenes [5] was 0 mm.
